For one data set, the system named is Fusarium proliferatum. Nature of the data set: Production of Fumonisin FB1 by Fusarium proliferatum (microtitre plate, FB1 by HPLC-MS/MS, growth by OD). Type of data set: cell-based. As to conditions: for pI50 Fum: FB1 concentration in medium after 6 days at 20° C., HPLC-MS/MS; for pI50 growth: OD620 at the beginning and after 6 days.
A short description of data set [1]: logP by HPLC on reversed-phase columns (C 18), EEC Directive 79/831 Annex V.A8. The data set is classed as physicochemical. The conditions noted are these: for chromatographic logP: reversed-phase HPLC column (C 18).
A further data set concerns Fusarium graminearum. Type of data set: cell-based. The conditions noted are these: 50 µM.
The next data set relates to Gibberella zeae. The conditions noted are these: in vivo.
Where [2] appears, read: values marked [b], footnote not given.
The mark [3] stands for this setting: values marked [c], footnote not given.
[4] abbreviates: method marker [a], footnote not given.
The mark [5] stands for this setting: method marker [b], footnote not given, compound 68 value matches logP (pH 2.3).
[6] abbreviates: pH 2.3, pH 2.3, 0.1% aqueous phosphoric acid and acetonitrile, read-out: logP [a].
Setting [7] is: method marker [b] (compound 257: pH2.7).

Data on 41 compounds can be found in patent US20110230478A1 (Bayer ScienceCrop AG, priority 2008, published 2011).

Where a name gives a salt, the structure may show the parent alone. Read-outs that look alike come from different tables or passages of the source. Bounds are passed on as bounds.

As to `CC(C)Nc1nc(Nc2ccc(C(=O)N(C)C)cc2)ncc1Cl` [Example 234], in the data set with Fusarium proliferatum, the “pI50 Fum” value is given as 5.3 and the pI50 growth amounted to 4.6. The logP in data set [1] (setting [2]) was 1.44[b]. The logP in data set [1] (setting [3]) was 2.27[c];.

The compound `CN(C)S(=O)(=O)c1cccc(Nc2ncc(Cl)c(NC(C)(C)C)n2)c1` [Example 51] returned a pI50 growth with Fusarium proliferatum of less than 4.3. Moreover, the logP in data set [1] (setting [4]) is 2.73[a].

As for `COCC(C)Nc1nc(Nc2cccc(OC)c2)ncc1Br` (centres unmarked) [Example 109], in the data set with Fusarium proliferatum, the “pI50 Fum” value came out at 4.7 and the pI50 growth is given as less than 4.3. Also, the logP in data set [1] (setting [5]) was 1.9[b].

The compound `CNC(=O)Oc1cccc(Nc2ncc(Cl)c(NC(C)C)n2)c1` [Example 203] registered a pI50 growth in the data set with Fusarium proliferatum of 4.6. The logP in data set [1] (setting [2]) is 1.53[b].

On to `C=CCNC(=O)c1ccc(Nc2ncc(Cl)c(NC(C)COC)n2)cc1` (racemic) [Example 136], for which, in the data set with Fusarium proliferatum, the “pI50 Fum” value is listed as 4.4 and the pI50 growth was less than 4.3. The logP in data set [1] (setting [2]) is 1.64[b].

`CCCC(CC)Nc1nc(Nc2ccccc2)ncc1Br` (centres unmarked) [Example 228] registered a pI50 growth in the data set on Fusarium proliferatum of less than 4.3. The logP in data set [1] (values marked [a], pH 2.3) was 2.44[a].

In the case of `CCc1cccc(Nc2ncc(Cl)c(NC(C)C)n2)c1` [Example 230], in the data set on Fusarium graminearum, the “growth inhibition of Fusarium graminearum” value is on record as 86% and the “inhibitory activity of DON/AcDON” value was greater than 80%. Further, the logP in data set [1] (setting [2]) was 2.33[b]. In addition, in data set [1] (setting [3]), the logP is 4.25[c];.

As to `CC(C)Nc1nc(Nc2cccc(O)c2)ncc1Cl` [Example 214], in the data set on Fusarium proliferatum, the “pI50 Fum” value is 6 and the pI50 growth was less than 4.3. For the same compound, in data set [1] (setting [2]), the logP is 1.39[b].

Take `COCC(C)Nc1nc(Nc2ccc(OC)c(OC)c2)ncc1Br` (centres unmarked) [Example 74]: in the data set with Fusarium proliferatum, the “pI50 Fum” value came to 4.6 and the pI50 growth is listed as less than 4.3. Besides, in data set [1] (setting [5]), the logP is 1.55[b].

In the data set on Fusarium proliferatum, `CC(C)Nc1nc(Nc2ccc(CC(=O)C(C)(C)C)cc2)ncc1Cl` [Example 199] gave a pI50 growth of 4.9. Also, the logP in data set [1] (setting [2]) is 2.3[b].

For the compound `CSc1cccc(Nc2ncc(Cl)c(NC(C)C)n2)c1` [Example 173], the efficacy with Gibberella zeae is reported as no less than 80%. Moreover, in the data set with Fusarium proliferatum, the “pI50 Fum” value was 4.8. For the same compound, the pI50 growth in the data set on Fusarium proliferatum is reported as less than 4.3. The logP was 2.36[a]; in data set [1] (values marked [a], pH 2.3) and 3.89[c] in data set [1] (setting [3]).

With `CC(=O)c1cccc(Nc2ncc(Cl)c(NC(C)C)n2)c1.Cl` [Example 50], the logP in data set [1] (setting [4]) is 1.79[a].

Consider `CCC(C)CNc1nc(Cl)ncc1Cl` (centres unmarked) [Example V-24, 2,5-dichloro-N-(2-methylbutyl)pyrimidine-4-amine], for which the chromatographic logP in data set [1] (setting [6]) was determined as 3.42.

In the case of `CCC(C)N(C)c1nc(Nc2cccc(C(C)=O)c2)ncc1Cl` (centres unmarked) [Example 179], the logP in data set [1] (values marked [a], pH 2.3) was 2.88[a].

Consider `COCCN(C)c1nc(Nc2ccccc2)ncc1Cl` [Example 222, 5-Chloro-N^4-(2-methoxyethyl)-N^4-methyl-N^2-phenylpyrimidine-2,4-diamine], for which the chromatographic logP was 2.02 in data set [1] (setting [6]) and 2.02 in data set [1] (pH 2.3, values marked [a], pH 2.3, read-out: logP).

`COCC(C)Nc1nc(Nc2ccc(F)cc2F)ncc1Cl` (centres unmarked) [Example 81]: in data set [1] (setting [5]), the logP was 2.02[b].

`CCC(C)N(C)c1nc(Nc2ccccc2)ncc1Cl` (centres unmarked) [Example 40]: the logP in data set [1] (setting [4]) was 2.85[a].

With `COCC(C)Nc1nc(Nc2ccc(N(C)C(C)=O)cc2)ncc1Cl` (centres unmarked) [Example 99], in data set [1] (setting [5]), the logP is 1.48[b].

As for `COCC(C)Nc1nc(Nc2ccc(CC(=O)OC)cc2)ncc1Cl` (centres unmarked) [Example 91], the logP in data set [1] (setting [5]) is 1.71[b].

Turning to `CC(C)Nc1nc(Nc2ccc(NC(=O)C(C)C)cc2)ncc1Cl` [Example 209], the logP in data set [1] (setting [2]) was 1.61[b].

Regarding `COCC(C)Nc1nc(Nc2cccc(C#N)c2)ncc1Cl` (centres unmarked) [Example 83], in data set [1] (setting [5]), the logP is 2.11[b].

Turning to `COCC(C)Nc1nc(Nc2ccc(C(=O)OC)cc2)ncc1Cl` (centres unmarked) [Example 38, Methyl 4-({5-chloro-4-[(1-methoxypropan-2-yl)amino]pyrimidin-2-yl}amino)benzene-carboxylate hydrochloride], the chromatographic logP in data set [1] (method marker [c], footnote not given, read-out: logP) is 3.05; in data set [1] (pH 2.3, method marker [a], footnote not given, read-out: logP) it was 2.31; in data set [1] (setting [6]), 2.31.

Turning to `COCC(C)Nc1nc(Nc2ccc(C(C)=O)cc2)ncc1Cl` (centres unmarked) [Example 152], in the data set on Fusarium proliferatum, the “pI50 Fum” value stood at 5 and the pI50 growth is reported as less than 4.3. Further, the logP in data set [1] (setting [2]) was 2.02[b].

For the compound `CNc1nc(Nc2cccc(CC#N)c2)ncc1Cl` [Example 235], the logP in data set [1] (setting [2]) is 1.1[b].

Regarding `CSCCNc1nc(Nc2ccccc2)ncc1C#N` [Example 67], the logP in data set [1] (setting [5]) was 2.6[b].

As to `COCC(C)Nc1nc(Nc2cc(OC)c(OC)c(OC)c2)ncc1C(F)(F)F` (centres unmarked) [Example 24], the logP in data set [1] (setting [5]) is 2.46[b].

For the compound `CCC(=O)c1ccc(Nc2ncc(Cl)c(NC(C)COC)n2)cc1` (centres unmarked) [Example 104], the logP in data set [1] (setting [5]) was 2.36[b].

Consider `CC(=O)c1ccc(Nc2ncc(Cl)c(NC3CCCCC3)n2)cc1` [Example 266], for which the logP in data set [1] (method marker [a]) is 2.77[a].

For the compound `Clc1cccc(Nc2ncc(Cl)c(NC3CCCCC3)n2)c1` [Example 258], the logP in data set [1] (setting [7]) is 3.81[b].

Turning to `CC(C)Nc1nc(Nc2cccc(S(=O)(=O)N(C)C)c2)ncc1Cl` [Example 47], the logP in data set [1] (setting [4]) was 2.08[a].

For the compound `CCOc1cccc(Nc2ncc(Cl)c(NC(C)COC)n2)c1` (centres unmarked) [Example 96], the logP in data set [1] (setting [5]) was 2.04[b].

For `CCCCN(C)c1nc(Nc2cccc(SC)c2)ncc1Cl` [Example 282], in data set [1] (setting [7]), the logP was 3.9[b].

Take `CC(C)Nc1nc(Nc2cccc(CS(=O)(=O)N(C)C(C)C)c2)ncc1Cl` [Example 242]: the logP was 2.18[b] in data set [1] (setting [2]) and 3.44[c]; in data set [1] (setting [3]).

Regarding `CC(C)=CCNc1nc(Nc2ccccc2)ncc1Cl` [Example 289], the logP in data set [1] (setting [7]) is 2.17[b].

Regarding `CCOC(=O)Nc1cccc(Nc2ncc(Cl)c(NC(C)C)n2)c1` [Example 216], the logP in data set [1] (setting [2]) was 1.81[b].

On to `COCC(Nc1nc(Nc2ccccc2)ncc1Br)C(C)C` (centres unmarked) [Example 224], for which the logP in data set [1] (setting [2]) was 2.55[b].

With `CC(C)c1cccc(Nc2ncc(C(F)(F)F)c(NC3CCCC3)n2)c1` [Example 257, N^4-Cyclopentyl-N^2-[3-(propan-2-yl)phenyl]-5-(trifluoromethyl)pyrimidine-2,4-diamine], the chromatographic logP in data set [1] (pH 2.7, LC-MS, pH 2.7, 0.1% aqueous formic acid and acetonitrile, read-out: logP [b]) came to 5.08; in data set [1] (pH 2.7, method marker [b] (compound 257: pH2.7), read-out: logP) it was 5.08.

Turning to `COCC(C)Nc1nc(Nc2cccc(SC)c2)ncc1Cl` (centres unmarked) [Example 101], the logP in data set [1] (setting [5]) was 2.13[b].

As to `COCCNc1nc(Nc2ccc(OC(C)C)cc2)ncc1Cl` [Example 12], the logP in data set [1] (setting [4]) was 1.78[a].

With `COCCNc1nc(Nc2cccc(Cl)c2)ncc1Cl` [Example 2], the values for the logP in data set [1] (setting [4]) and in data set [1] (setting [5]) were 2.13[a]; and 2.13[b], respectively.

Consider `CNc1nc(Nc2ccccc2)ncc1Cl` [Example 35], for which the logP in data set [1] (setting [4]) is 1.27[a].
